# Article PMC9704499 (European journal of medicinal chemistry, 2021)
# Tested on: Tau0N4R-TM-tGFP U2OS cells
# Assay: Tau phosphorylation
# Details: 25–100 μM, 6 hrs
compound,measurement,value
"c1ccc(CNc2nc(Nc3cc(C4CC4)[nH]n3)c3sccc3n2)cc1 [Compound 4, N2-benzyl-N4-(5-cyclopropyl-1H-pyrazol-3-yl)thieno[3,2-d]pyrimidine-2,4-diamine]",cytotoxicity in bundle formation assay,cytotoxicity effects started to appear
